The target of assay [1] is T1, α-Glucosidase (BY) (Saccharomyces cerevisiae, UniProt P07265).
T1 construct: purchased Sigma
The assay can be described thus: Glycosidase inhibition, α-glucosidase from brewers yeast. Type of assay: biochemical. From the text: (§1) Materials: All of the buffers, enzymes, and substrates were purchased from Sigma and used as received. These included piperazine-N,N'-bis(2-ethanesulfonic acid) (PIPES), sodium acetate (NaOAc), ethylenediaminetetraacetic acid (EDTA), β-D-glucosidase (from sweet almond), p-nitrophenyl β-D-glucoside, α-D-glucosidase, p-nitrophenyl α-D-glucoside, β-N-acetyl-D-glucosaminedase, p-nitrophenyl β-N-acetyl-D-glucosaminide, α-D-mannosidase, and p-nitrophenyl α-D-mannoside.
b) PIPES-NaOAc buffer (0.01M PIPES, 0.2M NaOAc and 0.01 mM EDTA, pH 6.5). This buffer was prepared according to the literature procedure [Dale et al., Biochemistry 1985, 24, 3530].
d) α-D-Glucosidase: 1.5 mg of solid protein (70 units/mg) were dissolved in 1 mL PIPES-NaOAc buffer solution and used for assays without further dilution.
g) Substrate solutions: all substrates were dissolved in the corresponding buffer solution for enzymatic assay.
(§2) For each inhibitor, five inhibitor concentrations, ranging from zero to three times Ki, were generally used to determine the Ki value. […] The amount of enzyme added in each assay was adjusted so that less than 10 percent of the substrate, with its lowest substrate concentration, would be consumed within 45 seconds. Since all of the substrates have p-nitrophenol as leaving group, the assays were monitored at 400 nanometers (nm), where the molecular extinction coefficient, ε, was calibrated to be 3204.5M^-1 cm^-1 at pH 6.5. The following illustrates the detailed procedure.
To a 1 mL disposable cuvette were added […] (μL) of the NaOAc-PIPES buffer solution, 20 μL of the inhibitor solution and 20 μL of the p-nitrophenyl β-D-glucoside solution (100 Mm in PIPES-NaoAc buffer, PH 6.5). The solution was well mixed and 20 μL of the β-D-glucosidase solution were injected into the cuvette to start the reaction. The reaction was monitored at 400 nm on a Beckman DU-70 photospectrometer for 45 seconds and the initial hydrolysis rate was calculated. The same procedure was repeated with five other substrate concentrations. After all the initial rates were accumulated, the corresponding Lineweaver-Burk plot at that inhibitor concentration was constructed.
PIPES-NaOAc buffer was used for all the enzymes except β-N-acetyl-D-glucosaminedase, for which PIPES buffer was used.

Assay [2] deals with β-Glucosidase (SA). The experiment in a line: Glycosidase inhibition, β-glucosidase from sweet almond. Type of assay: biochemical. The settings on record: kinetic analysis.
Source text: as §1
b) PIPES-NaOAc buffer (0.01M PIPES, 0.2M NaOAc and 0.01 mM EDTA, pH 6.5). This buffer was prepared according to the literature procedure [Dale et al., Biochemistry 1985, 24, 3530]. […]
For each inhibitor, five inhibitor concentrations, ranging from zero to three times Ki, were generally used to determine the Ki value. […] Since all of the substrates have p-nitrophenol as leaving group, the assays were monitored at 400 nanometers (nm), where the molecular extinction coefficient, ε, was calibrated to be 3204.5M^-1 cm^-1 at pH 6.5. […]
To a 1 mL disposable cuvette were added 950 microliters (μL) of the NaOAc-PIPES buffer solution, 20 μL of the inhibitor solution and 20 μL of the p-nitrophenyl β-D-glucoside solution (100 Mm in PIPES-NaoAc buffer, PH 6.5). […] The reaction was monitored at 400 nm on a Beckman DU-70 photospectrometer for 45 seconds and the initial hydrolysis rate was calculated. […]

Assay [3] concerns the target T2, α-Glucosidase Type I (calf liver) (Bos taurus, UniProt A0A3Q1M9D9).
T2 construct: host or cells: calf liver
T2 sequence (A0A3Q1M9D9 1-839): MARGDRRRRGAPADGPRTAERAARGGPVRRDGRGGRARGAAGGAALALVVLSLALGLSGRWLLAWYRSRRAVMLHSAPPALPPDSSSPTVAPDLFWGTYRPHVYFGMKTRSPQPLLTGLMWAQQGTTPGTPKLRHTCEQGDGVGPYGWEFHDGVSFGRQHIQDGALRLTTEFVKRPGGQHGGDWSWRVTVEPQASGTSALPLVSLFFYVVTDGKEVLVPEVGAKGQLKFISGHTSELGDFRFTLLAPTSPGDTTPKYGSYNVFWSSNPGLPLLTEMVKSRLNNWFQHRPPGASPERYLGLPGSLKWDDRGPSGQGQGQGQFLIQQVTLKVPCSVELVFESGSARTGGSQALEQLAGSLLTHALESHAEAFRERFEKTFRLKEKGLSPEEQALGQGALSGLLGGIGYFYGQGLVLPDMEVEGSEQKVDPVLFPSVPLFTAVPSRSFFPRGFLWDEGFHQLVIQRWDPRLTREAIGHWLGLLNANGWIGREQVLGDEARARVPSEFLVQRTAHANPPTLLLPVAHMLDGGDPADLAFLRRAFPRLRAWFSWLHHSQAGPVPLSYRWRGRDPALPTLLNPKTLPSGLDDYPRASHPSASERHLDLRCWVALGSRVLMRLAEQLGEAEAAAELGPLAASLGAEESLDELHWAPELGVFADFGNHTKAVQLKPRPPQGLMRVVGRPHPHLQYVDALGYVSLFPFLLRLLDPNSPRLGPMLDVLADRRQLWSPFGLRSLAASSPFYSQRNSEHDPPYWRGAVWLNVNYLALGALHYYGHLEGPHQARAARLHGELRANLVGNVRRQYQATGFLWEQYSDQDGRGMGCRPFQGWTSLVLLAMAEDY
The assay can be described thus: Glycosidase inhibition, α-glucosidase Type I (calf liver). Type of assay: biochemical. The settings on record: footnote not given.

Assay [4] deals with β-D-Galactosidase (jack bean). The experiment in a line: Glycosidase inhibition, β-D-galactosidase (jack bean). Type of assay: biochemical. The settings on record: 10 mM inhibitor in the assay.
Source text: as §2

Assay [5] has as its target α-L-Fucosidase. The experiment in a line: α-L-Fucosidase inhibition, hydrolysis of p-nitrophenyl-α-L-fucoside. Type of assay: biochemical. The note with it: for Type of fucosidase inhibition: versus fuc-pNP. On the procedure: α-L-Fucosidase activity was measured by incubating the enzyme (0.005 Units) with fuc-pNP ([…]) in 0.4 ml of 50 mM acetate buffer, pH 5.5 for 20 minutes at 25° C. in the absence and presence of the azasugars of the present invention. The reaction was stopped by the addition of 0.8 ml of 2 Mm glycine buffer, pH 10.5. The amount of formed p-nitrophenol was determined by optical density spectroscopy at a wavelength of 400 nm.

Assay [6] deals with AIDS virus gp160 envelope protein precursor. The settings on record: Walker et al., Proc. Natl. Acad. Sci. 1987, 84, 8120; cited from earlier work.
[7] abbreviates: pH 6.5, p-nitrophenyl α-D-glucoside, Lineweaver-Burk, read-out: Ki (M), α-Glucosidase (BY).
The mark [8] stands for this setting: fuc-pNP substrate, 50 mM acetate buffer, pH 5.5, 25° C., read-out: Ki (mM), α-L-Fucosidase Inhibition (Table 2).

Here are results for ten compounds from patent US5276120A, “Process for forming omega-deuxy-azasugars” (The Scripps Research Institute, priority 1992, dated 1994).

Where two headings read alike, the source gives them in different places.

T1 sequence (P07265 whole entry): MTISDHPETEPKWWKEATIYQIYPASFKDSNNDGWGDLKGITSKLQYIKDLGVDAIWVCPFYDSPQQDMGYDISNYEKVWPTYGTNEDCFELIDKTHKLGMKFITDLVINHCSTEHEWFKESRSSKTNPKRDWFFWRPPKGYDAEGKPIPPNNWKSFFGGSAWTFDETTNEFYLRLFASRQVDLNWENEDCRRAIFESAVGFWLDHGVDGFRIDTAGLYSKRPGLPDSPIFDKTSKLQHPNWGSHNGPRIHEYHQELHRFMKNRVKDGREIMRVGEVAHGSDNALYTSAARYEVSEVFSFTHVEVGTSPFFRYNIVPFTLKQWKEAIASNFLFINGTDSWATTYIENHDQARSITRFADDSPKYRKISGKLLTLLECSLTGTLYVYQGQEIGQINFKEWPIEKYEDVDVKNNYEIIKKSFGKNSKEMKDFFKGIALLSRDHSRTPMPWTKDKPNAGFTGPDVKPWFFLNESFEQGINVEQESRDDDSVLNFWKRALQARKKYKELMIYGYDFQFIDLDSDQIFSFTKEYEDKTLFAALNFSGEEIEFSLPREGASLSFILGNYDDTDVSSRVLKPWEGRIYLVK

On to `C[C@H]1NC[C@H](O)[C@@H](O)[C@@H]1O` [Compound 3c, 1,5,6-Trideoxy-1,5-imino-D-glucitol], for which the Ki in assay [1] came out at 0.00156 M.

As for `C[C@@H]1[C@@H](O)[C@H](O)[C@@H](O)CN1C` [Compound 17, N-Methyl-1,5,6-trideoxy-1,5-imino-D-glucitol], in assay [1] (setting [7]), the Ki was 0.00178 M.

Turning to `CC1C(O)C(O)C(O)C[N+]1(C)[O-]` [Compound 18, N-Methyl-1,5,6-trideoxy-1,5-imino-D-glucitol oxide], in assay [2], the “Potency relative to Compound 17, β-glucosidase from sweet almond” value is reported as “less potent inhibitor than Compound 17”. In addition, in assay [1] (setting [7]), the Ki turned out to be 0.00695 M.

As for `CN1CC(O)C(O)C(O)C1CO` (stereo not shown) [Compound 19, N-methyl 1-deoxynojirimycin], the values for the Ki in assay [3] and in assay [1] were 0.07 µM and 0.000369 M, respectively.

As for `OCC1NCC(O)C(O)C1O` (stereo not shown) [Compound 23, 1-deoxynojirimycin], the “Inhibition of β-D-Galactosidase (jack bean)” value in assay [4] is “No inhibition”. Further, the Ki in assay [1] was 8.67e-06 M.

Consider `OCC1NCC(O)C(O)C1O` [Compound 124, D-1-deoxytalonojirimycin], for which, in assay [5] (setting [8]), the Ki worked out at 0.05 ± 0.006 mM.

As for `OC[C@H]1NC[C@@H](O)[C@@H](O)[C@@H]1O` [D-1-deoxymannojirimycin, 1,5-dideoxy-1,5-imino-D-mannitol], in assay [5] (setting [8]), the Ki amounted to 0.03 ± 0.01 mM.

For `C[C@@H]1OC(O)[C@@H](O)[C@H](O)[C@@H]1O` (stereo partly drawn) [L-Fucose], the Ki in assay [5] (competitive inhibitor versus fuc-pNP, read-out: Ki versus fuc-pNP) worked out at 0.3 ± 0.01 mM; in assay [5] (setting [8]) it was 0.3 ± 0.1 mM. Moreover, the “Type of fucosidase inhibition” value in assay [5] is given as “competitive inhibitor”.

Regarding `OC1CN2CCC(O)C2C(O)C1O` (stereo not shown) [castanospermine, 1,6,7,8-tetrahydroxyoctahydroindolizine], the “Effect on processing of AIDS virus gp160 envelope protein precursor” value in assay [6] is given as “inhibit the processing of the AIDS virus gp160 envelope protein precursor”.

Regarding `Oc1ccccc1` [phenol], the Ki in assay [5] (noncompetitive inhibitor, analog of p-nitrophenol, read-out: Kis) came out at 0.18 ± 0.02 mM. Further, the “Type of fucosidase inhibition” value in assay [5] is “noncompetitive inhibitor”.
